Assay results: ChEMBL document CHEMBL1150352, “Novel substituted aminoalkylguanidines as potential antihyperglycemic and food intake-reducing agents” (2008)

What was measured:
Format in all cases: functional
Conditions in all cases: route subcutaneous
Mus musculus [1] = experiment: Antihyperglycemic activity in C57BL/KsJ db/db mouse assessed as reduction in food intake at 25 mg/kg, sc administered twice a day for 4 days and once on day 5 relative to control; design: scale not given: the % may be the effect or the level left
Mus musculus [2] = experiment: Antihyperglycemic activity in C57BL/KsJ db/db mouse assessed as reduction in water consumption at 25 mg/kg, sc administered twice a day for 4 days and once on day 5 relative to control; design: scale not given: the % may be the effect or the level left
Mus musculus [3] = experiment: Antihyperglycemic activity in C57BL/KsJ db/db mouse at 25 mg/kg, sc administered twice a day for 4 days once on day 5 immediately after load injection by insulin suppression test relative to control
Mus musculus [4] = experiment: Antihyperglycemic activity in C57BL/KsJ db/db mouse at 25 mg/kg, sc administered twice a day for 4 days and once on day 5 after 60 mins of load injection by insulin suppression test relative to control
Mus musculus [5] = experiment: Antihyperglycemic activity in C57BL/KsJ db/db mouse at 130 mg/kg, sc administered twice a day for 4 days once on day 5 by insulin suppression test relative to control
Mus musculus [6] = experiment: Antihyperglycemic activity in C57BL/KsJ db/db mouse at 13 mg/kg, sc administered twice a day for 4 days once on day 5 by insulin suppression test relative to control
Mus musculus [7] = experiment: Antihyperglycemic activity in C57BL/KsJ db/db mouse at 5 mg/kg, sc administered twice a day for 4 days once on day 5 immediately after load injection by insulin suppression test relative to control
Mus musculus [8] = experiment: Antihyperglycemic activity in C57BL/KsJ db/db mouse at 5 mg/kg, sc administered twice a day for 4 days once on day 5 after 60 mins of load injection by insulin suppression test relative to control

Row | Structure (SMILES) | Activity (Mus musculus [1]) | Activity (Mus musculus [2]) | Activity (Mus musculus [3]) | Activity (Mus musculus [4]) | Activity (Mus musculus [5]) | Activity (Mus musculus [6]) | Activity (Mus musculus [7]) | Activity (Mus musculus [8])
1 | CC(C)=CCNC(=N)NCCCCN | -37% | -53% | -13% | -11% | – | – | – | –
2 | N=C(NCCCCN)NCCCc1ccccc1 | -33% | -44% | 12% | -8% | – | – | – | –
3 | CC(C)CCNC(=N)NCCCCCCN | -14% | -24% | -17% | -24% | – | – | – | –
4 | N=C(NCCCCCCBr)NCC1CC1 | -22% | -30% | -12% | -20% | – | – | – | –
5 | CC(C)=CCNC(=N)NCCCCCCN | -19% | -53% | -31% | -13% | – | – | – | –
6 | N=C(NCC1CCC(CN)CC1)NCC1CC1 (configuration not stated) | -40% | -59% | -29% | -43% | – | – | – | –
7 | CC(C)=CCNC(=N)N[C@H]1CC[C@H](N)CC1 | -27% | -44% | -14% | -22% | – | – | – | –
8 | CC(C)=CCNC(=N)NCCCCCN | -41% | -57% | -15% | -13% | – | – | – | –
9 | CC(C)=CCNC(=N)NCC1CCC(CN)CC1 (configuration not stated) | -21% | -29% | -8% | -29% | – | – | – | –
10 | N=C(NCCCCCCN)NCC1CC1 | -19% | -45% | -42% | -18% | – | – | – | –
11 | CN1CCN(/C(=N\c2ccc(F)cc2)NCCCCCCN)CC1 | -14% | -35% | -21% | -12% | – | – | – | –
12 | NCCCCCCN/C(=N/c1ccc(F)cc1)N1CCCCC1 | -22% | -41% | -15% | -8% | – | – | – | –
13 | CN(C)C(=N)NC(=N)N [METFORMIN] | – | – | – | – | -22% | -11% | – | –
14 | CN(CCOc1ccc(CC2SC(=O)NC2=O)cc1)c1ccccn1 (configuration not stated) [ROSIGLITAZONE] | – | – | – | – | – | – | -29% | -39%
